Test results from paper PMC11538350, “Synthetic studies on the tetrasubstituted D-ring of cystobactamids lead to potent terephthalic acid antibiotics” (Communications Chemistry, 2024).
In brackets after ≈: the same amount, converted by molar mass.

Tested on: not listed separately
Experiment: metabolic stability assay, mouse microsomes
Settings: Table S4

SMILES	T1/2 MICROSOMES (M) [h]
C#CC[C@H](NC(=O)c1ccc(NC(=O)c2ccc(C#N)cc2)cc1)C(=O)Nc1ccc(C(=O)Nc2ccc(C(=O)Nc3ccc(C(=O)O)cc3)c(O)c2CC(C)C)cc1 [Cmpd. 11]	> 1

Tested on: K. pneum. KP10581
Experiment: MIC assay
Assay type: cell-based
Settings: Klebsiella pneumoniae; read-out: MIC K. pneum. KP10581
Procedure: (§1) All cystobactamids were evaluated in MIC-assays on a panel of representative ESKAPE strains with focus on A. baumannii (Tables 1 and 2). Compared to our previous work[10],[17],[18], we specifically included more challenging test strains with known resistances against gyrase inhibitors.
(§2) 2.1 Materials and Methods
(§3) Strains were cultivated according to standard procedures. Bacterial cryo-cultures were
(§4) resuspended into fresh MHBII (cation adjusted) medium. The resuspension
(§5) assay plate (Corning, #3788).
(§6) in parallel as a positive control. […]

SMILES	MIC [µg/mL]
C#CC[C@H](NC(=O)c1ccc(NC(=O)c2ccc(C#N)cc2)cc1)C(=O)Nc1ccc(C(=O)Nc2ccc(C(=O)Nc3ccc(C(=O)O)cc3)c(O)c2CC(C)C)cc1 [Cmpd. 11]	8 (≈ 10.1 µM)

Tested on: A. baum. DSM-30008
Experiment: MIC assay
Assay type: cell-based
Settings: Acinetobacter baumannii, DSM30008; reference strain; read-out: MIC A. baum. DSM-30008
Procedure: as §1, §2, §3, §4, §5, §6

SMILES	MIC [µg/mL]
C#CC[C@H](NC(=O)c1ccc(NC(=O)c2ccc(C#N)cc2)cc1)C(=O)Nc1ccc(C(=O)Nc2ccc(C(=O)Nc3ccc(C(=O)O)cc3)c(O)c2CC(C)C)cc1 [Cmpd. 11]	1 (≈ 1.26 µM)

Tested on: S. aur. ATCC-29213
Experiment: MIC assay
Assay type: cell-based
Settings: Staphylococcus aureus, ATCC29213; reference strain; read-out: MIC S. aur. ATCC-29213
Procedure: as §1, §2, §3, §4, §5, §6

SMILES	MIC [µg/mL]
C#CC[C@H](NC(=O)c1ccc(NC(=O)c2ccc(C#N)cc2)cc1)C(=O)Nc1ccc(C(=O)Nc2ccc(C(=O)Nc3ccc(C(=O)O)cc3)c(O)c2CC(C)C)cc1 [Cmpd. 11]	16 to 32 (≈ 20.2 to 40.5 µM)

Tested on: S. pneum. DSM-11865 (PRSP)
Experiment: MIC assay
Assay type: cell-based
Settings: Streptococcus pneumoniae; read-out: MIC S. pneum. DSM-11865 (PRSP)
Procedure: as §1, §2, §3, §4, §5, §6

SMILES	MIC [µg/mL]
C#CC[C@H](NC(=O)c1ccc(NC(=O)c2ccc(C#N)cc2)cc1)C(=O)Nc1ccc(C(=O)Nc2ccc(C(=O)Nc3ccc(C(=O)O)cc3)c(O)c2CC(C)C)cc1 [Cmpd. 11]	> 64

Tested on: E. cloacae ATCC BAA-2468
Experiment: MIC assay
Assay type: cell-based
Settings: Enterobacter cloacae, ATCCBAA2468; read-out: MIC E. cloacae ATCC BAA-2468
Procedure: as §1, §2, §3, §4, §5, §6

SMILES	MIC [µg/mL]
C#CC[C@H](NC(=O)c1ccc(NC(=O)c2ccc(C#N)cc2)cc1)C(=O)Nc1ccc(C(=O)Nc2ccc(C(=O)Nc3ccc(C(=O)O)cc3)c(O)c2CC(C)C)cc1 [Cmpd. 11]	> 64

Tested on: K. pneum. R-1525
Experiment: MIC assay
Assay type: cell-based
Settings: Klebsiella pneumoniae; read-out: MIC K. pneum. R-1525
Procedure: as §1, §2, §3, §4, §5, §6

SMILES	MIC [µg/mL]
C#CC[C@H](NC(=O)c1ccc(NC(=O)c2ccc(C#N)cc2)cc1)C(=O)Nc1ccc(C(=O)Nc2ccc(C(=O)Nc3ccc(C(=O)O)cc3)c(O)c2CC(C)C)cc1 [Cmpd. 11]	> 64

Tested on: E. coli ATCC-25922
Experiment: MIC assay
Assay type: cell-based
Settings: Escherichia coli, ATCC25922; reference strain; read-out: MIC E. coli ATCC-25922
Procedure: as §1, §2, §3, §4, §5, §6

SMILES	MIC [µg/mL]
C#CC[C@H](NC(=O)c1ccc(NC(=O)c2ccc(C#N)cc2)cc1)C(=O)Nc1ccc(C(=O)Nc2ccc(C(=O)Nc3ccc(C(=O)O)cc3)c(O)c2CC(C)C)cc1 [Cmpd. 11]	< 0.03

Tested on: A. baum. R835
Experiment: MIC assay
Assay type: cell-based
Settings: Acinetobacter baumannii; read-out: MIC A. baum. R835
Procedure: as §1, §2, §3, §4, §5, §6

SMILES	MIC [µg/mL]
C#CC[C@H](NC(=O)c1ccc(NC(=O)c2ccc(C#N)cc2)cc1)C(=O)Nc1ccc(C(=O)Nc2ccc(C(=O)Nc3ccc(C(=O)O)cc3)c(O)c2CC(C)C)cc1 [Cmpd. 11]	> 64

Tested on: E. coli LM705
Experiment: MIC assay
Assay type: cell-based
Settings: Escherichia coli, LM705, read-out: MIC E. coli LM705
Procedure: as §1, §2, §3, §4, §5, §6

SMILES	MIC [µg/mL]
C#CC[C@H](NC(=O)c1ccc(NC(=O)c2ccc(C#N)cc2)cc1)C(=O)Nc1ccc(C(=O)Nc2ccc(C(=O)Nc3ccc(C(=O)O)cc3)c(O)c2CC(C)C)cc1 [Cmpd. 11]	> 64

Tested on: A. baum. ATCC BAA-1710
Experiment: MIC assay
Assay type: cell-based
Settings: Acinetobacter baumannii, ATCCBAA1710; read-out: MIC A. baum. ATCC BAA-1710
Procedure: as §1, §2, §3, §4, §5, §6

SMILES	MIC [µg/mL]
C#CC[C@H](NC(=O)c1ccc(NC(=O)c2ccc(C#N)cc2)cc1)C(=O)Nc1ccc(C(=O)Nc2ccc(C(=O)Nc3ccc(C(=O)O)cc3)c(O)c2CC(C)C)cc1 [Cmpd. 11]	0.25 (≈ 0.316 µM)

Tested on: A. baum. CIP-107292
Experiment: MIC assay
Assay type: cell-based
Settings: Acinetobacter baumannii, CIP107292; read-out: MIC A. baum. CIP-107292
Procedure: as §1, §2, §3, §4, §5, §6

SMILES	MIC [µg/mL]
C#CC[C@H](NC(=O)c1ccc(NC(=O)c2ccc(C#N)cc2)cc1)C(=O)Nc1ccc(C(=O)Nc2ccc(C(=O)Nc3ccc(C(=O)O)cc3)c(O)c2CC(C)C)cc1 [Cmpd. 11]	> 64

Tested on: P. ae. PA14
Experiment: MIC assay
Assay type: cell-based
Settings: Pseudomonas aeruginosa, PA14; reference strain; read-out: MIC P. ae. PA14
Procedure: as §1, §2, §3, §4, §5, §6

SMILES	MIC [µg/mL]
C#CC[C@H](NC(=O)c1ccc(NC(=O)c2ccc(C#N)cc2)cc1)C(=O)Nc1ccc(C(=O)Nc2ccc(C(=O)Nc3ccc(C(=O)O)cc3)c(O)c2CC(C)C)cc1 [Cmpd. 11]	> 64

Tested on: A. baum. CIP-105742
Experiment: MIC assay
Assay type: cell-based
Settings: Acinetobacter baumannii, CIP105742; read-out: MIC A. baum. CIP-105742
Procedure: as §1, §2, §3, §4, §5, §6

SMILES	MIC [µg/mL]
C#CC[C@H](NC(=O)c1ccc(NC(=O)c2ccc(C#N)cc2)cc1)C(=O)Nc1ccc(C(=O)Nc2ccc(C(=O)Nc3ccc(C(=O)O)cc3)c(O)c2CC(C)C)cc1 [Cmpd. 11]	< 0.03

Tested on: P. ae. PA14ΔmexAB
Experiment: MIC assay
Assay type: cell-based
Settings: Pseudomonas aeruginosa, read-out: MIC P. ae. PA14ΔmexAB
Procedure: as §1, §2, §3, §4, §5, §6

SMILES	MIC [µg/mL]
C#CC[C@H](NC(=O)c1ccc(NC(=O)c2ccc(C#N)cc2)cc1)C(=O)Nc1ccc(C(=O)Nc2ccc(C(=O)Nc3ccc(C(=O)O)cc3)c(O)c2CC(C)C)cc1 [Cmpd. 11]	> 64

Tested on: K. pneum. CIP-104298
Experiment: MIC assay
Assay type: cell-based
Settings: Klebsiella pneumoniae, CIP104298; reference strain; read-out: MIC K. pneum. CIP-104298
Procedure: as §1, §2, §3, §4, §5, §6

SMILES	MIC [µg/mL]
C#CC[C@H](NC(=O)c1ccc(NC(=O)c2ccc(C#N)cc2)cc1)C(=O)Nc1ccc(C(=O)Nc2ccc(C(=O)Nc3ccc(C(=O)O)cc3)c(O)c2CC(C)C)cc1 [Cmpd. 11]	> 64

Tested on: not given
Experiment: not given
Settings: human plasma
Procedure: 2.1 Materials and Methods […]
Determination of in vitro ADME properties
7, 8, 11 and 42. All samples were analysed via HPLC -MS/MS.
HPLC-MS/MS analysis of cystobactamids
AB Sciex QTrap 6500plus mass spectrometer. LC conditions were as follows: column:
Samples were run under acidic
For plasma stability experiments, samples were procured from commercial sources.
Human plasma was obtained from Antibodies-online (catalog no. ABIN5706569), and mouse plasma was obtained from Tebubio (catalog no. D408-04-0050).
The methods were performed in accordance with relevant guidelines and regulations and approved by the Helmholtz Centre for Infection Research. […]

SMILES	T1/2 PLASMA (H) [h]
C#CC[C@H](NC(=O)c1ccc(NC(=O)c2ccc(C#N)cc2)cc1)C(=O)Nc1ccc(C(=O)Nc2ccc(C(=O)Nc3ccc(C(=O)O)cc3)c(O)c2CC(C)C)cc1 [Cmpd. 11]	> 4

Same assay, conditions: mouse plasma

SMILES	T1/2 PLASMA (M) [h]
C#CC[C@H](NC(=O)c1ccc(NC(=O)c2ccc(C#N)cc2)cc1)C(=O)Nc1ccc(C(=O)Nc2ccc(C(=O)Nc3ccc(C(=O)O)cc3)c(O)c2CC(C)C)cc1 [Cmpd. 11]	> 4

Tested on: not listed separately
Experiment: metabolic stability assay, human microsomes
Settings: second microsome column of Table S4, head prints (M); mouse and human microsomes

SMILES	T1/2 MICROSOMES (M) [h]
C#CC[C@H](NC(=O)c1ccc(NC(=O)c2ccc(C#N)cc2)cc1)C(=O)Nc1ccc(C(=O)Nc2ccc(C(=O)Nc3ccc(C(=O)O)cc3)c(O)c2CC(C)C)cc1 [Cmpd. 11]	> 1

Tested on: E. faec. DSM-17050 (VRE)
Experiment: MIC assay
Assay type: cell-based, Enterococcus faecium
Settings: Enterococcus; read-out: MIC E. faec. DSM-17050 (VRE)
Procedure: as §1, §2, §3, §4, §5, §6

SMILES	MIC [µg/mL]
C#CC[C@H](NC(=O)c1ccc(NC(=O)c2ccc(C#N)cc2)cc1)C(=O)Nc1ccc(C(=O)Nc2ccc(C(=O)Nc3ccc(C(=O)O)cc3)c(O)c2CC(C)C)cc1 [Cmpd. 11]	< 0.03

Tested on: E. ae. CIP 106754
Experiment: MIC assay
Assay type: cell-based, Enterobacter aerogenes
Settings: Klebsiella aerogenes, CIP106754, read-out: MIC E. ae. CIP 106754
Procedure: as §1, §2, §3, §4, §5, §6

SMILES	MIC [µg/mL]
C#CC[C@H](NC(=O)c1ccc(NC(=O)c2ccc(C#N)cc2)cc1)C(=O)Nc1ccc(C(=O)Nc2ccc(C(=O)Nc3ccc(C(=O)O)cc3)c(O)c2CC(C)C)cc1 [Cmpd. 11]	> 64
